Data set [1] deals with A549. The experiment in a line: Cell cycle arrest at G1 phase in human A549 cells at 7 uM after 24 hrs using propidium iodide by flow cytometry in presence of KCl. It is filed as functional, cell-based.
For data set [2], the system named is A549. Put plainly: Upregulation of p27Kip1 protein level in human A549 cells at 7 uM by Western blot method. The class given is functional, cell-based. The following applies: TDE = time-dependent effect.
The test system of data set [3] is A549. The experiment in a line: Cell cycle arrest in human A549 cells assessed as reduction in cells at S phase at 2 to 7 uM after 24 hrs using propidium iodide by flow cytometry. It is filed as functional, cell-based.
In data set [4] the test system is A549. Put plainly: Growth inhibition of human A549 cells at 4 to 12 uM by trypan Blue assay. The class given is functional, cell-based. The following applies: TDE = time-dependent effect.
Data set [5] concerns A549. The experiment in a line: Cytocidal activity in human A549 cells at 6 to 8 uM by trypan Blue assay. It is filed as functional, cell-based.
The subject of data set [6] is A549. The experiment in a line: Effect on p21Waf1 protein level in human A549 cells at 7 uM after 3 to 24 hrs by Western blot method. The class given is functional, cell-based.
The test system of data set [7] is A549. Put plainly: Upregulation of p27Kip1 protein level in human A549 cells assessed as inhibition of mTOR activity at 7 uM by Western blot method. It is filed as functional, cell-based. The following applies: TDE = time-dependent effect.
Data set [8] deals with A549. The experiment in a line: Upregulation of p27Kip1 protein level in human A549 cells assessed as inhibition of AKT activity at 7 uM by Western blot method. It is filed as functional, cell-based. The settings on record: TDE = time-dependent effect.
For data set [9], the system named is A549. The experiment in a line: Inhibition of T-type Ca2+ channel in human A549 cells assessed as reduction in intracellular ca2+ level at 3 to 8 uM after 108 mins by Fluo-4 staining method in presence of KCl. The class given is cell-based.
Data set [10] concerns A549. The experiment in a line: Effect on Cyclin E protein level in human A549 cells at 7 uM after 3 to 24 hrs by Western blot method. The class given is functional, cell-based.
Data set [11] has as its system A549. Put plainly: Upregulation of p27Kip1 protein level in human A549 cells assessed as inhibition of CDK4-mediated Rb phosphorylation at 7 uM by Western blot method. The class given is functional, cell-based. The following applies: TDE = time-dependent effect.
The test system of data set [12] is A549. Put plainly: Cell cycle arrest at G1 phase in human A549 cells at 7 uM after 24 hrs using propidium iodide by flow cytometry. The class given is functional, cell-based.
For data set [13], the system named is A549. The experiment in a line: Growth inhibition of human A549 cells at 6 to 48 hrs by trypan Blue assay. The class given is functional, cell-based.
Data set [14] relates to A549. The experiment in a line: Upregulation of p27Kip1 protein level in human A549 cells assessed as inhibition of CDK2 activity at 7 uM by Western blot method. It is filed as functional, cell-based. The settings on record: TDE = time-dependent effect.
For data set [15], the system named is A549. The experiment in a line: Effect on Cyclin D1 protein level in human A549 cells at 7 uM after 3 to 24 hrs by Western blot method. The class given is functional, cell-based.
The subject of data set [16] is A549. The experiment in a line: Antitumor activity against human A549 cells xenografted in BALB/c nu/nu mouse assessed as tumor growth inhibition at 2 to 10 mg/kg, po administered 5 times a week for 21 days. The class given is functional, organism-based.
Data set [17] deals with A549. The experiment in a line: Downregulation of Cdk4 protein level in human A549 cells at 7 uM after 3 to 24 hrs by Western blot method. It is filed as functional, cell-based.
For data set [18], the system named is A549. The experiment in a line: Downregulation of Cdk2 protein level in human A549 cells at 7 uM after 3 to 24 hrs by Western blot method. The class given is functional, cell-based.
For data set [19], the system named is A549. Put plainly: Inhibition of T-type Ca2+ channel in human A549 cells assessed as reduction in intracellular ca2+ level at 3 to 8 uM after 108 mins by Fluo-4 staining method. It is filed as cell-based.
In data set [20] the test system is A549. Put plainly: Antitumor activity against human A549 cells xenografted in BALB/c nu/nu mouse assessed as tumor growth inhibition at 20 mg/kg, ip administered twice a week for 21 days. The class given is functional, organism-based. On the set-up: dose 20 mg/kg.
Data set [21] concerns Mus musculus. The experiment in a line: Toxicity in BALB/c nu/nu mouse assessed as change in body weight at 20 mg/kg, ip administered twice a week for 21 days. It is filed as organism-based. Further details: dose 20 mg/kg, route intraperitoneal. The settings on record: in vivo, 504 h.
Data set [22] has as its system Mus musculus. Put plainly: Toxicity in BALB/c nu/nu mouse assessed as mortality at 20 mg/kg, ip administered twice a week for 21 days. The class given is organism-based. On the set-up: dose 20 mg/kg, route intraperitoneal. The following applies: in vivo, 504 h.

Calls of active or inactive are those of the source. The calls are words filed in the database; no cut-off is given here.

With `CC(C)(C)OC(=O)NCCCCCN1C(Nc2ccc(-c3ccccc3)cc2)=Nc2ccccc2C1CC(=O)NCc1ccccc1` (configuration not stated), the result with A549 [1], in the data set on A549 [5], with A549 [6], with A549 [10] and with A549 [15] was inactive. For the same compound, the Activity entry with A549 [2] was “tde”. In addition, the outcome with A549 [3], with A549 [12], with A549 [17] and in the data set with A549 [18] was Active. Moreover, the “growth inhibition (GI)” value is “tde” with A549 [4] and “Dose-dependent effect” in the data set with A549 [13]. The inhibition result in the data set with A549 [7], with A549 [8], in the data set on A549 [11] and in the data set on A549 [14] was “tde” throughout. Besides, the inhibition entry in the data set on A549 [9] was “inactive”. Also, the TGI result in the data set with A549 [16] is “Active”. In addition, in the data set on A549 [19], the inhibition entry is “Active”.

`CC(=O)O[C@H]1C(=O)[C@@]2(C)[C@H]([C@H](OC(=O)c3ccccc3)[C@]3(O)C[C@H](OC(=O)[C@H](O)[C@@H](NC(=O)c4ccccc4)c4ccccc4)C(C)=C1C3(C)C)[C@]1(OC(C)=O)CO[C@@H]1C[C@@H]2O` [PACLITAXEL]: the TGI result in the data set on A549 [20] is “Active”. Further, the Activity entry in the data set with Mus musculus [21] and in the data set with Mus musculus [22] was “Non-toxic” each time.
